According to ChEMBL document CHEMBL4699441, “Identification and Preclinical Evaluation of the Bicyclic Pyrimidine γ-Secretase Modulator BMS-932481” (ACS Med Chem Lett, 2019):

Experiment: Metabolic stability in Sprague-Dawley rat assessed as half life incubated for 24 hrs by LC-MS/MS analysis
Type: ADME

## CNc1nc(Nc2ccc(-n3cnc(C)n3)c(OC)c2)nc2c1CC[C@H]2c1ccc(F)cc1
  t1/2: 28 min
